Laboratory results published in patent EP3628663A1, “ANTIVIRAL COMPOUNDS” (priority 2018, dated 2020).
Like-named read-outs stand apart in the source and are kept apart here.

Legend:
WW3-NEDD 4.1 peptide = WW3-NEDD 4.1 peptide (Homo sapiens, UniProt P46934); test: MicroScale thermophoresis (MST) binding to FAM-labelled WW3 peptide of NEDD4.1
Experimental: (§1) For the MicroScale Thermophoresis (MST) experiments 1 mg of each FAM-labeled WW3_Nedd.4.1 ([…] KIPAH = SEQ ID NO: 1) and WW3_Nedd.4.2 peptide ([…] […] = SEQ ID NO: 2) (FAM = Fluorescein amidite) was used at >80% purity.
(§2) MicroScale thermophoresis binding experiments were carried out with final 100 nM FAM-labelled WW3_Nedd.4.1 and WW3_Nedd.4.2 in binding buffer (1x PBS pH 7.4, 5 % DMSO, 0.1 % Pluronic F-127). The concentration range of the compound of formula (IIIa) is indicated here-after: Table 1
(§3) The MST analyses were performed at 40 % MST power, 100 % LED power in standard capillaries on a Monolith NT.115 blue/green device at 25°C (NanoTemper Technologies, Munich, Germany) in duplicate technical runs in the same capillary. Thermophoresis + Tjump was analysed. The recorded fluorescence was normalised to fraction bound (0 = unbound, 1 = bound), and processed using the GraphPad Prism® 6 software and fitted using the KD fit formula derived from the law of mass action.

U2OS cells = test: Ubiquitin proteome by diGly peptide enrichment and LC-MS/MS; type: cell-based, Homo sapiens; conditions: 24h, compared to DMSO treated control cells
Experimental: U2OS Cells were treated for 24h with two different concentrations of the compound of formula (IIIa) (2µM and 10µM) and were subjected to Mass Spec. analysis following diGly peptide enrichment to obtain changes in the Ubiquitin proteome.
Briefly, cells were collected following treatment (as above) and protein extracts generated using acetone precipitation. Total proteins were trypsin-digested and the resulting peptides purified through anti di-Gly affinity chromatography prior being sequenced by LC-MS/MS.

WW3-NEDD 4.2 peptide = WW3-NEDD 4.2 peptide (Homo sapiens, UniProt Q96PU5); test: MicroScale thermophoresis (MST) binding to FAM-labelled WW3 peptide of NEDD4.2; conditions: 100 nM FAM-labelled peptide, 1x PBS pH 7.4, 5 % DMSO, 0.1 % Pluronic F-127, 25°C
WW3-NEDD 4.2 peptide, sequence (Q96PU5 with tags, fused parts or gaps): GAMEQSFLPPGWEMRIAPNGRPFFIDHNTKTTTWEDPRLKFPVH
Experimental: as §1, §2, §3

protein VI = test: Ubiquitylation of RFP-tagged protein VI in NEDD4.2-GFP expressing cells (RFP-trap, western blot); type: cell-based; conditions: increasing amounts (0, 2, 5, 10, 25 µM) for 2h; NEDD4.2-GFP cells
Experimental: Stably expressing NEDD4.2-GFP cells were transfected with an expression vector encoding RFP-tagged protein VI WT (including the PPxY targeted by NEDD4 ubiquitin ligases through WW-domains, which are the target of the compounds) or protein VI M1 (with the PPxY targeted by NEDD4 ubiquitin ligases through WW-domains mutated to PGAA) and treated with increasing amounts of the compound of formula (IIIa) for 2h. RFP stands for Red Fluorescent Protein.
Protein VI was immunoprecipitated from drug treated cells using RFP-trap and analyzed by western blotting with anti-ubiquitin antibodies.
(§4) Samples were analyzed by western blot using anti-protein VI antibodies described in Martinez et al., J Virol. 2015 Feb;89(4):2121-35.

WW3-domain of NEDD4 = target: T1, WW3-domain of NEDD4 (Homo sapiens, UniProt P46934); test: Solution NMR interaction study with synthetic WW3-domain peptide of NEDD4; type: binding; conditions: equimolar amounts of compound and NEDD4 peptide
T1 construct: a peptide corresponding to the 45 amino acids of WW3-domain of NEDD4; made in house; host or cells: chemical synthesis
T1 sequence (P46934 834-878): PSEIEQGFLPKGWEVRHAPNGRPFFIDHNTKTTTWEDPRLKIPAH

GFP-NEDD4.1 = test: Localization of GFP-NEDD4.1 in U2OS cells (fluorescence microscopy); type: cell-based, Homo sapiens; conditions: U2OS cells stably expressing GFP-NEDD4.1, versus DMSO
From the text: (§5) U2OS cells (ATCC® HTB-96™) (Homo sapiens bone osteosarcoma) stably expressing low levels of GFP-NEDD4.1 or GFP-NEDD4.2 were generated through single copy flp-FRT integration (Bosse et al., Methods Mol Biol. 2013;1064:153-69.) and treated with the compound of formula (IIIa) or the control DMSO.

recombinant NEDD4.2 = target: T2, recombinant NEDD4.2 (Homo sapiens, UniProt Q96PU5); test: In vitro ubiquitylation of protein VI released from adenovirus particles with recombinant NEDD4.2; type: biochemical; conditions: high concentrations (25 µM); recombinant NEDD4.2, 1h at 30°C
T2 sequence (Q96PU5 1-975): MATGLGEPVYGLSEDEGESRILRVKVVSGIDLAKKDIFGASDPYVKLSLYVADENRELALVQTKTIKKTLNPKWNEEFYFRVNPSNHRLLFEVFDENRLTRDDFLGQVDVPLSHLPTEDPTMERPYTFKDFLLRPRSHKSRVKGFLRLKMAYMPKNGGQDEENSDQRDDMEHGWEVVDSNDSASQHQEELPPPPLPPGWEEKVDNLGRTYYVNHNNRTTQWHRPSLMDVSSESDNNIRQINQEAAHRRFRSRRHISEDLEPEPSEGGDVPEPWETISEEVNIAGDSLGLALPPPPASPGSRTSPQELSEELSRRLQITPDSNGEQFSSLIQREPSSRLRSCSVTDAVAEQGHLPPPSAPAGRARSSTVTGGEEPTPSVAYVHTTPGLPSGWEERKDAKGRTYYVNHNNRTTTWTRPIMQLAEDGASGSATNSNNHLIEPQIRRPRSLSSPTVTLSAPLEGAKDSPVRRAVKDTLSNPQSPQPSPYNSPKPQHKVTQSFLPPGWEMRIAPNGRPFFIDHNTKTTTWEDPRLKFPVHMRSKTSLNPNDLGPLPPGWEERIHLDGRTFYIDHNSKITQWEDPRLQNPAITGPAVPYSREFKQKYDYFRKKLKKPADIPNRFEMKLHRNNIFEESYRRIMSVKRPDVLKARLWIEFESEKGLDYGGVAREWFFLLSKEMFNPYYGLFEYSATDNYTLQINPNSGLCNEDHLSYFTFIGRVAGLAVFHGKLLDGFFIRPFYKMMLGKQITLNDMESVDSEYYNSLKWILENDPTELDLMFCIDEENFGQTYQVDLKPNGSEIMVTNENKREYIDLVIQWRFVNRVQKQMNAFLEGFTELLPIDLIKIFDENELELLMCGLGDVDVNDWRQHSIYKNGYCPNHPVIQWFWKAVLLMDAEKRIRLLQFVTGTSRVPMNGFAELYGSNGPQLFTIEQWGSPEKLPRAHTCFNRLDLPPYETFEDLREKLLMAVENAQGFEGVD
Experimental: For in vitro ubiquitylation reactions, purified Adenovirus particles were treated with mild heat to release protein VI as previously described in Wodrich et al. (2010 - PLoS Pathog. 6, e1000808), and in vitro ubiquitylation reactions were supplemented with recombinant NEDD4.2 and DMSO or the compound of formula (IIIa) and carried out for 1h at 30°C or left on ice.
as §4

HAd-C5-GFP = test: Fluorescent plaque forming assay of adenoviral propagation (virus spread); type: cell-based; conditions: HEK293 cells
Experimental: Adenoviral propagation was quantified by fluorescent plaque forming assay with GFP expressing HAd-C5 vector in the presence of the compound as a measure of virus spread through multiple rounds of infection.
HEK293 cells were infected with 0.1 physical particles per cell (pp/cell) of E1-deficient GFP expressing HAd-C5-GFP vector for 24 hours followed by removal of the inoculums and overlay with 1% agarose supplemented with vehicle only (DMSO) or 5 µM of the compound of formula (IIIa).
Six days after infection, plaque sizes were measured by epifluorescence microscopy using Image J.
Cidofovir™, the standard clinical drug used against adenovirus infections in the clinic, is also included in this test.
The compounds were used at a concentration of 5 µM. Cidofovir was in particular used at even higher concentration, i.e. 10 and 20 µM.
DMSO was used as negative control.
Statistical analysis was carried out using unpaired Student t-test.

GFP-NEDD4.2 = test: Localization of GFP-NEDD4.2 in U2OS cells (fluorescence microscopy); type: cell-based, Homo sapiens; conditions: U2OS cells stably expressing GFP-NEDD4.2, versus untreated cells
From the text: as §5

NEDD4.2-GFP = test: Association of incoming fluorescently labelled adenoviruses with NEDD4.2-GFP (fluorescence microscopy); type: cell-based, Homo sapiens; conditions: 10µM; 15-30 min p.i.
Experimental: GFP-NEDD4.2 expressing cells were infected in absence or presence of 10µM of the compound of formula (IIIa) with fluorescently labelled viruses and association between viruses and NEDD4.2-GFP was quantified using fluorescence microscopy.

WW3-NEDD 4.1 peptide, sequence (P46934 834-878): as the sequence (P46934 834-878) above

Compound | Kd (WW3-NEDD 4.1 peptide; MST, 100 nM FAM-labelled peptide, 1x PBS pH 7.4, 5 % DMSO, 0.1 % Pluronic F-127, 25°C, read-out: WW3-NEDD 4.1 peptide KD) | higher affinity to the WW3 peptide domain target compared to the Imidazole control (WW3-NEDD 4.1 peptide; ratio of MST KD values, WW3-NEDD4.1 and WW3-NEDD4.2) | ubiquitylation of cellular proteins (U2OS cells; 2µM) | ubiquitylation of cellular proteins (U2OS cells; 10µM) | Kd (WW3-NEDD 4.2 peptide) | ubiquitylation of protein VI in cells (protein VI) | interaction with the NEDD4 peptide (NMR chemical shift change) (WW3-domain of NEDD4) | NEDD4.1 localization (GFP-NEDD4.1) | protein VI ubiquitylation in vitro (recombinant NEDD4.2) | anti-adenoviral activity (plaque size) (HAd-C5-GFP; 5 µM, 0.1 pp/cell HAd-C5-GFP, plaque size six days after infection, compared to DMSO) | NEDD4.2 localization (GFP-NEDD4.2) | recruitment of NEDD4.2 to incoming AdV particles (NEDD4.2-GFP) | inhibition of adenoviral propagation (plaque size) (HAd-C5-GFP; 10 µM and 20 µM (highest non-cytotoxic concentrations), plaque size) | Kd (WW3-NEDD 4.1 peptide)
O=C(/C=C(\C(=O)c1ccc(Cl)cc1Cl)n1ccnc1)c1ccc(Cl)cc1Cl [Compound of formula (IIIa), (E)-1,4-Bis(2,4-dichlorophenyl)-2-(1H-imidazol-1-yl)but-2-ene-1,4-dione] | 0.058 ± 0.022 µM | 100-1000 fold | protein ubiquitylation is reduced or increased for several cellular proteins | preferentially increases ubiquitylation of several cellular proteins | 0.12 ± 0.039 µM | gradually impaired ubiquitylation of protein VI | interacts with the NEDD4 peptide | became largely immobile and relocated to a perinuclear region | prevented protein VI ubiquitylation in vitro | effective anti-adenoviral activity | accumulated strongly at cell-cell-contact sites as well as in a distinct perinuclear region | prevented the recruitment of NEDD4.2 | – | –
Nc1ccn(C[C@@H](CO)OCP(=O)(O)O)c(=O)n1 [Cidofovir, reference compound] | – | – | – | – | – | – | – | – | – | – | – | – | did not show significant inhibition | –
c1c[nH]cn1 [Imidazole (control), Imidazole, reference compound] | – | – | – | – | 90.4 ± 38.6 µM | – | – | – | – | – | – | – | – | 88.9 ± 28.4 µM
